# Patent US8263605B2, “Modulators of muscarinic receptors” (Vertex Pharmaceutical Incorporated, priority 2006, dated 2012)
# Tests used:
# M1 muscarinic receptor = target: T1, M1 muscarinic receptor (Homo sapiens, UniProt P11229); test: Functional mobilization of intracellular calcium (FLIPR), M1-CHO cells; type: cell-based; settings: for Emax: 100% efficacy is the maximum response obtained with the Carbachol control; for M1 Activity: CHO cells expressing M1, calcium mobilization
# T1 construct: expressed in transfected cells; host or cells: CHO (M1-CHO)
# T1 sequence (P11229 1-460): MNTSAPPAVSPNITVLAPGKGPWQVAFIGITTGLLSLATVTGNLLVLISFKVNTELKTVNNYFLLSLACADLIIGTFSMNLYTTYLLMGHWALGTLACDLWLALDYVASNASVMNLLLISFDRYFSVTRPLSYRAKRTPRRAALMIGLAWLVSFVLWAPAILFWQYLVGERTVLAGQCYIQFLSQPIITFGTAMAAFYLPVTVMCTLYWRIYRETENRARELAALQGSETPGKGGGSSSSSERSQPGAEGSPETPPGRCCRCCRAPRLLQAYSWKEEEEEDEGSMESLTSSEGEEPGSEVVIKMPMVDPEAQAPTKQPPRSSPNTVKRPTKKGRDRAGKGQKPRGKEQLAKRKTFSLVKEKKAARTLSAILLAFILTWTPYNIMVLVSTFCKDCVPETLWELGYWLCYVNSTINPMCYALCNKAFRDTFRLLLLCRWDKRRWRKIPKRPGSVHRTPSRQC
# Experimental: (§1) Functional Mobilization of Intracellular Calcium to Determine Muscarinic Receptor Activity:
# (§2) CHO cells expressing muscarinic receptors (M1 to M5) are grown as monolayers in tissue culture flasks at 37° C. in a humidified atmosphere containing 5% CO2 and passaged every 3-5 days. The growth media is Dulbecco's modified eagles medium (DMEM, Gibco Cat#12430-054), containing 25 mM Hepes and supplemented with Fetal Bovine Serum (Hyclone, cat# SH30071.03), 0.1 mM of MEM non-essential amino acids (GIBCO, Cat#11140-050), 1 mM MEM Sodium Pyruvate (GIBCO Cat#11360-070) and 100 units/ml of Penicillin G and 100 μg/ml of Streptomycin (GIBCO Cat#15140-122). The recombinant muscarinic receptor cell lines are grown under antibiotic pressure with media containing 25 μg/ml zeocin and 500 μg/ml G418 (M1-CHO), 4 μg/ml puromycin, 50 μg/ml zeocin and 2.5 μg/ml blasticidin (M2 and M4-CHO) or 50 μg/ml zeocin and 4 μg/ml puromycin (M3 and M5-CHO).
# (§3) Cells are harvested at 80-90% confluence using Versene (GIBCO Cat#15040-066), collected by centrifugation and seeded 18-24 hours prior to running the calcium assay at a density of 5,000-10,000 cells/well in […], clear-bottomed 384-well plates (BD Biocoat, poly-D-lysine, Cat#356663). The day of the experiment, the cells are washed with a plate washer (Bioteck Instrunents, ELX 405) using bath 1 buffer (140-mM NaCl, 4.5-mM KCl, 2-mM CaCl2, 1-mM MgCl2, 10-mM Hepes-Na, 10-mM Glucose, pH 7.4, with NaOH) containing 1 mM Probenecid. Next, the calcium dye Fluo-3 (25 μl/well of Fluo-3 AM at 4 μM, Molecular Probes F-1241, in Bath 1 buffer containing 1 mM Probenecid) is added to the 25 μl of Bath 1 remaining in each well after the plate wash and the dye is loaded at 37° C. in the tissue culture incubator for 60-90 min. The fluorescent dye is removed using the plate washer with Bath 1 containing 1 mM Probenecid, leaving 25 μl/well of this solution after the wash. Alternatively, cells can be loaded with the calcium indicator from Molecular Devices (Calcium 3 Assay Reagents, Cat # R7181) adding 5 μl of a 5× solution dye in Bath 1 containing 1 mM Probenecid (10 ml per dye flask cat# R7182 to generate a solution 20×) to 20 μl of the same buffer. After loading for 60 min, the experiment can be run without having to remove the dye.
# (§4) Compounds are prepared at a 2× fold concentration in a 96-well plate (round bottom, Costar Corning cat#3656), by reconstituting the pre-spotted compounds in bath 1 containing 1 mM probenecid. The final concentration DMSO is 0.5%, and the amount of DMSO is normalized across the assay plate. To determine an agonist action of the compounds on muscarinic receptors, the reconstituted compounds are added (25 μl compound/well) to the cell assay plate (containing 25 μl/well) using the multi-channel robotic system of the FLIPR 3 Instrument (Molecular Devices, Sunnyvale, Calif.). To determine a functional inhibitory action of the compounds on muscarinic receptors, the reconstituted compounds are added (25 μl compound/well) to the assay plate and pre-incubated for 15 min prior to adding 25 μl of Carbachol at 3× the EC80 for each muscarinic subtype. Alternatively, the compounds can be co-applied simultaneously with the agonist. In both assay modes, the fluorescence is recorded for 60 sec (excitation wavelength is […] and emission wavelength 540 nm) using the FLIPR 3 instrument.
# (§5) The potency, efficacy and selectivity of the muscarinic compounds were evaluated by screening the compound activity across the whole family (M1 to M5 cells). Compounds were also screened for activity on other proteins such as other GPCRs and ion channels to determine selectivity on M4 receptors.
# (§6) Examples of activities and efficacies of the muscarinic compounds of formulae (I, Ia, Ib, Ic, Id, and Ie) on modulating M1 and M4 receptors are shown below in Table 4. […]
# M4 muscarinic receptor = target: T2, M4 muscarinic receptor (Homo sapiens, UniProt P08173); test: Functional mobilization of intracellular calcium (FLIPR), M4-CHO cells; type: cell-based; settings: for Emax: 100% efficacy is the maximum response obtained with the Carbachol control; for M4 Activity: CHO cells expressing M4, calcium mobilization
# T2 construct: expressed in transfected cells; host or cells: CHO (M4-CHO)
# T2 sequence (P08173 1-479): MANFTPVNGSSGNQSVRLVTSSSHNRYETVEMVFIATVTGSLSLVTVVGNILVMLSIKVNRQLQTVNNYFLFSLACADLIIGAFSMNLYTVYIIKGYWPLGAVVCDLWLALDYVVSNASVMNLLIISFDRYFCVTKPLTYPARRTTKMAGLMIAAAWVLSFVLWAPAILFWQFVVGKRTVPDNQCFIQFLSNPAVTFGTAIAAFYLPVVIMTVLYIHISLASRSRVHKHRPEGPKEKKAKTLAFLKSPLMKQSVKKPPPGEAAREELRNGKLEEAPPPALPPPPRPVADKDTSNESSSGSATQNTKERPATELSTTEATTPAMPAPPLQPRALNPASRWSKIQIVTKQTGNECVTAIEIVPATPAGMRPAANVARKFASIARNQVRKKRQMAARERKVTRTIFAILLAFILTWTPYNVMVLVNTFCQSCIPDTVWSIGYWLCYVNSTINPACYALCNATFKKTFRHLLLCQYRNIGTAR
# Experimental: as §1, §2, §3, §4, §5, §6
structure (smiles),measurement,setting,value
CC#CCOC(=O)N1C2CCC1CC(N1CCC3(CCN(C(=O)N(C)C)c4ccccc43)CC1)C2 (centres unmarked) [compound 29],Emax,M1 muscarinic receptor,> 100%
same,M1 Activity,M1 muscarinic receptor,+++ (activity was measured to be less than 2.0 μM)
same,Emax,M4 muscarinic receptor,25 to 100%
same,M4 Activity,M4 muscarinic receptor,+++ (activity was measured to be less than 2.0 μM)
CN(C)C(=O)N1CCC2(CCN(C3CC4CCC(C3)N4c3cnccn3)CC2)c2ccccc21 (centres unmarked) [compound 30],Emax,M1 muscarinic receptor,25 to 100%
same,M1 Activity,M1 muscarinic receptor,+++ (activity was measured to be less than 2.0 μM)
same,Emax,M4 muscarinic receptor,25 to 100%
same,M4 Activity,M4 muscarinic receptor,+++ (activity was measured to be less than 2.0 μM)
Cc1nsc(N2C3CCC2CC(N2CCC4(CCN(C(=O)N(C)C)c5ccccc54)CC2)C3)n1 (centres unmarked) [compound 31],Emax,M1 muscarinic receptor,25 to 100%
same,M1 Activity,M1 muscarinic receptor,+++ (activity was measured to be less than 2.0 μM)
same,Emax,M4 muscarinic receptor,25 to 100%
same,M4 Activity,M4 muscarinic receptor,+++ (activity was measured to be less than 2.0 μM)
CN(C)C(=O)N1CCC2(CCN(C3CCNCC3)CC2)c2ccccc21 [compound 33],Emax,M1 muscarinic receptor,< 25%
same,M1 Activity,M1 muscarinic receptor,+ (activity was measured to be greater than 10.0 μM)
same,Emax,M4 muscarinic receptor,< 25%
same,M4 Activity,M4 muscarinic receptor,+ (activity was measured to be greater than 10.0 μM)
CC(=O)N1CCC2(CCN(C3CCNCC3)CC2)c2ccccc21 [compound 34],Emax,M1 muscarinic receptor,< 25%
same,M1 Activity,M1 muscarinic receptor,+ (activity was measured to be greater than 10.0 μM)
same,Emax,M4 muscarinic receptor,< 25%
same,M4 Activity,M4 muscarinic receptor,++ (activity was measured to be from 2.0 μM to 10.0 μM)
CN(C)C(=O)N1CCC2(CCN(C3CCN(c4nccs4)CC3)CC2)c2ccccc21 [compound 35],Emax,M1 muscarinic receptor,< 25%
same,M1 Activity,M1 muscarinic receptor,++ (activity was measured to be from 2.0 μM to 10.0 μM)
same,Emax,M4 muscarinic receptor,< 25%
same,M4 Activity,M4 muscarinic receptor,++ (activity was measured to be from 2.0 μM to 10.0 μM)
CC(=O)N1CCC2(CCN(C3CCN(c4ncc(C)s4)CC3)CC2)c2ccccc21 [compound 37],Emax,M1 muscarinic receptor,< 25%
same,M1 Activity,M1 muscarinic receptor,+ (activity was measured to be greater than 10.0 μM)
same,Emax,M4 muscarinic receptor,< 25%
same,M4 Activity,M4 muscarinic receptor,+ (activity was measured to be greater than 10.0 μM)
COC(=O)N1CCC(N2CCC3(CC2)CN(C(=O)N(C)C)c2ccccc23)CC1 [compound 38],Emax,M1 muscarinic receptor,25 to 100%
same,M1 Activity,M1 muscarinic receptor,++ (activity was measured to be from 2.0 μM to 10.0 μM)
same,Emax,M4 muscarinic receptor,25 to 100%
same,M4 Activity,M4 muscarinic receptor,+++ (activity was measured to be less than 2.0 μM)
CCCOC(=O)N1CCC(N2CCC3(CC2)CN(C(=O)N(C)C)c2ccccc23)CC1 [compound 40],Emax,M1 muscarinic receptor,25 to 100%
same,M1 Activity,M1 muscarinic receptor,+++ (activity was measured to be less than 2.0 μM)
same,Emax,M4 muscarinic receptor,25 to 100%
same,M4 Activity,M4 muscarinic receptor,+++ (activity was measured to be less than 2.0 μM)
CC(C)OC(=O)N1CCC(N2CCC3(CC2)CN(C(=O)N(C)C)c2ccccc23)CC1 [compound 41],Emax,M1 muscarinic receptor,25 to 100%
same,M1 Activity,M1 muscarinic receptor,+++ (activity was measured to be less than 2.0 μM)
same,Emax,M4 muscarinic receptor,25 to 100%
same,M4 Activity,M4 muscarinic receptor,+++ (activity was measured to be less than 2.0 μM)
CN(C)C(=O)N1CC2(CCN(C3CCN(C(=O)OCC(F)F)CC3)CC2)c2ccccc21 [compound 42],Emax,M1 muscarinic receptor,25 to 100%
same,M1 Activity,M1 muscarinic receptor,+++ (activity was measured to be less than 2.0 μM)
same,Emax,M4 muscarinic receptor,25 to 100%
same,M4 Activity,M4 muscarinic receptor,+++ (activity was measured to be less than 2.0 μM)
COCCOC(=O)N1CCC(N2CCC3(CC2)CN(C(=O)N(C)C)c2ccccc23)CC1 [compound 43],Emax,M1 muscarinic receptor,25 to 100%
same,M1 Activity,M1 muscarinic receptor,+++ (activity was measured to be less than 2.0 μM)
same,Emax,M4 muscarinic receptor,25 to 100%
same,M4 Activity,M4 muscarinic receptor,+++ (activity was measured to be less than 2.0 μM)
C#CCCOC(=O)N1CCC(N2CCC3(CC2)CN(C(=O)N(C)C)c2ccccc23)CC1 [compound 44],Emax,M1 muscarinic receptor,25 to 100%
same,M1 Activity,M1 muscarinic receptor,+++ (activity was measured to be less than 2.0 μM)
same,Emax,M4 muscarinic receptor,25 to 100%
same,M4 Activity,M4 muscarinic receptor,+++ (activity was measured to be less than 2.0 μM)
COC(=O)N1C2CCC1CC(N1CCC3(CC1)CN(C(=O)N(C)C)c1ccccc13)C2 (centres unmarked) [compound 45],Emax,M1 muscarinic receptor,25 to 100%
same,M1 Activity,M1 muscarinic receptor,++ (activity was measured to be from 2.0 μM to 10.0 μM)
same,Emax,M4 muscarinic receptor,25 to 100%
same,M4 Activity,M4 muscarinic receptor,+++ (activity was measured to be less than 2.0 μM)
CCOC(=O)N1C2CCC1CC(N1CCC3(CC1)CN(C(=O)N(C)C)c1ccccc13)C2 (centres unmarked) [compound 46],Emax,M1 muscarinic receptor,25 to 100%
same,M1 Activity,M1 muscarinic receptor,+++ (activity was measured to be less than 2.0 μM)
same,Emax,M4 muscarinic receptor,25 to 100%
same,M4 Activity,M4 muscarinic receptor,+++ (activity was measured to be less than 2.0 μM)
CCCOC(=O)N1C2CCC1CC(N1CCC3(CC1)CN(C(=O)N(C)C)c1ccccc13)C2 (centres unmarked) [compound 47],Emax,M1 muscarinic receptor,25 to 100%
same,M1 Activity,M1 muscarinic receptor,+++ (activity was measured to be less than 2.0 μM)
same,Emax,M4 muscarinic receptor,25 to 100%
same,M4 Activity,M4 muscarinic receptor,+++ (activity was measured to be less than 2.0 μM)
CC(C)OC(=O)N1C2CCC1CC(N1CCC3(CC1)CN(C(=O)N(C)C)c1ccccc13)C2 (centres unmarked) [compound 48],Emax,M1 muscarinic receptor,25 to 100%
same,M1 Activity,M1 muscarinic receptor,+++ (activity was measured to be less than 2.0 μM)
same,Emax,M4 muscarinic receptor,25 to 100%
same,M4 Activity,M4 muscarinic receptor,+++ (activity was measured to be less than 2.0 μM)
CN(C)C(=O)N1CC2(CCN(C3CC4CCC(C3)N4C(=O)OCC(F)F)CC2)c2ccccc21 (centres unmarked) [compound 49],Emax,M1 muscarinic receptor,25 to 100%
same,M1 Activity,M1 muscarinic receptor,+++ (activity was measured to be less than 2.0 μM)
same,Emax,M4 muscarinic receptor,25 to 100%
same,M4 Activity,M4 muscarinic receptor,+++ (activity was measured to be less than 2.0 μM)
COCCOC(=O)N1C2CCC1CC(N1CCC3(CC1)CN(C(=O)N(C)C)c1ccccc13)C2 (centres unmarked) [compound 50],Emax,M1 muscarinic receptor,25 to 100%
same,M1 Activity,M1 muscarinic receptor,+++ (activity was measured to be less than 2.0 μM)
same,Emax,M4 muscarinic receptor,25 to 100%
same,M4 Activity,M4 muscarinic receptor,+++ (activity was measured to be less than 2.0 μM)
C#CCCOC(=O)N1C2CCC1CC(N1CCC3(CC1)CN(C(=O)N(C)C)c1ccccc13)C2 (centres unmarked) [compound 51],Emax,M1 muscarinic receptor,25 to 100%
same,M1 Activity,M1 muscarinic receptor,+++ (activity was measured to be less than 2.0 μM)
same,Emax,M4 muscarinic receptor,25 to 100%
same,M4 Activity,M4 muscarinic receptor,+++ (activity was measured to be less than 2.0 μM)
